Patent publication US20030143733A1, “Tetrapeptide” (La Jolla Cancer Research Foundation, priority 1985, published 2003)

Key:
[1] = tested on: attachment of cells to a fibronectin-coated substrate; assay: Inhibition of cell attachment to fibronectin-coated substrate by solubilized peptide; type: cell-based; conditions: peptide in solubilized form combined with free cells
Description: Those peptides having a COOH-terminal cystine residue were assayed for their activity in promoting cell attachment by first attaching them via the heterobifunctional crosslinker SPDP (N-succinimidyl 3-(2-pyridyldithio) propionate, Sigma, St. Louis, Mo.) to rabbit IgG which was immobilized on plastic. The attachment assay was then carried out as described by Ruoslahti, E. et al., Methods Enzymology 82:803-831 (1981) using freshly trypsinized normal rat kidney cells (NRK). After a one hour incubation, those cells which had attached were fixed, stained and quantitated using either an Artek cell counter or a multiscan spectrophotometer. […] The relative activity of each peptide is indicated by the concentration of the peptides in nmoles/ml necessary to achieve half-maximal activity, or, where accurate quantitation was not possible, by the crosses at the right of FIG. 1, and by the graph in FIG. 2.
If the mechanism of cell attachment involves the recognition of the amino acid sequence of the tetrapeptide by a receptor on the cell, then it could be postulated that attachment could be inhibited by preventing this recognition by “blocking” the receptor. […] In separate experiments, various concentrations of the tetrapeptide (Arg-Gly-Asp-Ser) and a hexapeptide, Pro-Arg-Gly-Asp-Ser-Gly in a solubilized form were combined with the free cells, and attachment activity measured as above.

[2] = tested on: normal rat kidney cells (NRK); assay: Cell attachment promoting activity assay (peptide coupled via SPDP to rabbit IgG immobilized on plastic); type: cell-based; conditions: freshly trypsinized NRK cells, one hour incubation
Description: Those peptides having a COOH-terminal cystine residue were assayed for their activity in promoting cell attachment by first attaching them via the heterobifunctional crosslinker SPDP (N-succinimidyl 3-(2-pyridyldithio) propionate, Sigma, St. Louis, Mo.) to rabbit IgG which was immobilized on plastic. The attachment assay was then carried out as described by Ruoslahti, E. et al., Methods Enzymology 82:803-831 (1981) using freshly trypsinized normal rat kidney cells (NRK). After a one hour incubation, those cells which had attached were fixed, stained and quantitated using either an Artek cell counter or a multiscan spectrophotometer. In all cases, maximum attachment was about 80-90% of the cells plated. The relative activity of each peptide is indicated by the concentration of the peptides in nmoles/ml necessary to achieve half-maximal activity, or, where accurate quantitation was not possible, by the crosses at the right of FIG. 1, and by the graph in FIG. 2.

Substance	inhibition of normal attachment of cells to a fibronectin-coated substrate [1]	cell attachment promoting activity [2]
H-Arg-Gly-Asp-Ser-OH (RGDS; printed: Arg-Gly-Asp-Ser)	inhibit the normal attachment of cells	had the property of causing cell attachment
PRGDSG [Pro-Arg-Gly-Asp-Ser-Gly]	inhibit the normal attachment of cells	–
RVDSPAC [peptide with substitution of the glycine with the bulky valine residue]	–	abolished the activity
